In patent US8952024B2, “Herbicidal pyrimidone derivatives” (E I du Pont de Nemours and Company, priority 2009, dated 2015):
Read-outs that look alike come from different tables or passages of the source.

Legend:
Format in all cases: in vivo
[1] = test system: chickweed (Stellaria media); test: Test B postemergence plant response; conditions: Stellaria media, post-emergence, 360 h, Postemergence, read-out: Plant response rating, Chickweed
In short: (§1)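 Plants grown in peat/vermiculite medium were sprayed postemergence at 2–18 cm height (1- to 4-leaf stage). After 13–15 days in the greenhouse, response was rated visually against untreated controls on a 0–100 scale (0 no effect, 100 complete control).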

[2] = test system: canarygrass (Phalaris minor); test: Test B postemergence plant response; conditions: Phalaris minor, post-emergence, 360 h, Postemergence, read-out: Plant response rating, Canarygrass
In short: as §1

[3] = test system: windgrass (Apera spica-venti); test: Test B postemergence plant response; conditions: Apera spica-venti, post-emergence, 360 h, Postemergence, read-out: Plant response rating, Windgrass
In short: as §1

[4] = test system: wheat (Triticum aestivum); test: Test B pre-/postemergence plant response; conditions: for plant injury at 31 g/ha: 31 g ai/ha; for plant injury at 62 g/ha: 62 g ai/ha; for plant injury at 125 g/ha: 125 g ai/ha
Excerpt: (§2) Seeds of plant species selected from blackgrass (Alopecurus myosuroides), downy bromegrass (Bromus tectorum), green foxtail (Setaria viridis), Italian ryegrass (Lolium multiflorum), wheat (Triticum aestivum), wild oat (Avena fatua), deadnettle (henbit deadnettle, Lamium amplexicaule), galium (catchweed bedstraw, Galium aparine), bermudagrass (Cynodon dactylon), Surinam grass (Brachiaria decumbens), cocklebur (Xanthium strumarium), corn (Zea mays), large crabgrass (Digitaria sanguinalis), woolly cupgrass (Eriochloa villosa), giant foxtail (Setaria faberii), goosegrass (Eleusine indica), johnsongrass (Sorghum halepense), kochia (Kochia scoparia), lambsquarters (Chenopodium album), morningglory (Ipomoea coccinea), nightshade (eastern black nightshade, Solanum ptycanthum), yellow nutsedge (Cyperus esculentus), pigweed (Amaranthus retroflexus), ragweed (common ragweed, Ambrosia elatior), Russian thistle (Salsola kali), soybean (Glycine max), sunflower (common oilseed sunflower, Helianthus annuus) and velvetleaf (Abutilon theophrasti) were planted into a blend of loam soil and sand and treated preemergence with test compounds formulated in a non-phytotoxic solvent mixture which included a surfactant.
(§3) At the same time, plants selected from these crop and weed species and also winter barley (Hordeum vulgare), canarygrass (Phalaris minor), chickweed (Stellaria media) and windgrass (Apera spica-venti) were planted in pots containing Redi-Earth® planting medium (Scotts Company, 14111 Scottslawn Road, Marysville, Ohio 43041) comprising spaghnum peat moss, vermiculite, wetting agent and starter nutrients and treated with postemergence applications of some of the test chemicals formulated in the same manner. Plants ranged in height from 2 to 18 cm (1- to 4-leaf stage) for postemergence treatments.
(§4) Treated plants and controls were maintained in a greenhouse for 13 to 15 days, after which time all treated plants were visually evaluated and compared to controls. Plant response ratings, summarized in Table B, are based on a scale of 0 to 100 where 0 is no effect and 100 is complete control. A dash (-) response means no test result.

soybean (Glycine max) = test: Test B pre-/postemergence plant response; conditions: for plant injury at 31 g/ha: 31 g ai/ha; for plant injury at 62 g/ha: 62 g ai/ha; for plant injury at 125 g/ha: 125 g ai/ha
Excerpt: as §2, §3, §4

[5] = test system: velvetleaf (Abutilon theophrasti); test: Test B pre-/postemergence plant response; conditions: for pest or weed control at 31 g/ha: 31 g ai/ha; for pest or weed control at 62 g/ha: 62 g ai/ha; for pest or weed control at 125 g/ha: 125 g ai/ha
Excerpt: as §2, §3, §4

[6] = test system: blackgrass (Alopecurus myosuroides); test: Test B pre-/postemergence plant response; conditions: Alopecurus myosuroides, 360 h, read-out: Plant response rating, Blackgrass; for pest or weed control at 31 g/ha: 31 g ai/ha; for pest or weed control at 62 g/ha: 62 g ai/ha; for pest or weed control at 125 g/ha: 125 g ai/ha
Excerpt: as §2, §3, §4

[7] = 31 g ai/ha, 0 to 100 scale (0 no effect, 100 complete control)
[8] = 62 g ai/ha, scale 0 to 100 (0 no effect, 100 complete control)
[9] = 125 g ai/ha, scale 0 (no effect) to 100 (complete control), 13 to 15 days
[10] = 250 g ai/ha, scale 0 to 100 (0 no effect, 100 complete control), 13 to 15 days
[11] = Preemergence, 250 g ai/ha, 0 to 100 scale
[12] = Triticum aestivum, pre-emergence, Preemergence, scale 0 to 100 (0 no effect, 100 complete control), read-out: Plant response rating, Wheat
[13] = Glycine max, pre-emergence, Preemergence, scale 0 to 100 (0 no effect, 100 complete control), read-out: Plant response rating, Soybean
[14] = Abutilon theophrasti, pre-emergence, 360 h, Preemergence, scale 0 to 100 (0 no effect, 100 complete control), read-out: Plant response rating, Velvetleaf
[15] = pre-emergence, Preemergence, scale 0 to 100 (0 no effect, 100 complete control)

COCCn1c(-c2cc(F)cc(F)c2)ncc(C(=O)C2=C(O)C3CCC(C3)C2=O)c1=O (stereo not shown) [Compound 243, 2-(3,5-difluorophenyl)-5-[(2-hydroxy-4-oxobicyclo[3.2.1]oct-2-en-3-yl)carbonyl]-3-(2-methoxyethyl)-4(3H)-pyrimidinone]
pest or weed control at 31 g/ha [1, 7]: 80%
pest or weed control at 62 g/ha [1, 8]: 100%
pest or weed control at 125 g/ha [1, 9]: 100%
pest or weed control at 250 g/ha [1, 10]: 100%
pest or weed control at 31 g/ha [2, 7]: 90%
pest or weed control at 62 g/ha [2, 8]: 98%
pest or weed control at 125 g/ha [2, 9]: 100%
pest or weed control at 250 g/ha [2, 10]: 100%
pest or weed control at 31 g/ha [3, 7]: 80%
pest or weed control at 62 g/ha [3, 8]: 90%
pest or weed control at 125 g/ha [3, 9]: 98%
pest or weed control at 250 g/ha [3, 10]: 100%
Wheat plant response rating [4, 11]: 70
plant injury at 31 g/ha ([4]; Triticum aestivum, post-emergence, Postemergence, 0 to 100 scale (0 no effect, 100 complete control), read-out: Plant response rating, Wheat): 85%
plant injury at 62 g/ha ([4]; Triticum aestivum, post-emergence, Postemergence, scale 0 to 100 (0 no effect, 100 complete control), read-out: Plant response rating, Wheat): 95%
plant injury at 125 g/ha ([4]; Triticum aestivum, post-emergence, Postemergence, scale 0 (no effect) to 100 (complete control), 13 to 15 days, read-out: Plant response rating, Wheat): 95%
plant injury at 250 g/ha ([4]; Triticum aestivum, post-emergence, Postemergence, 250 g ai/ha, scale 0 to 100 (0 no effect, 100 complete control), 13 to 15 days, read-out: Plant response rating, Wheat): 100%
plant injury at 31 g/ha [4, 12]: 0%
plant injury at 62 g/ha [4, 12]: 40%
plant injury at 125 g/ha ([4]; Triticum aestivum, pre-emergence, Preemergence, scale 0 to 100, 0 no effect, 100 complete control, read-out: Plant response rating, Wheat): 70%
plant injury at 31 g/ha (soybean (Glycine max); Glycine max, post-emergence, Postemergence, 0 to 100 scale (0 no effect, 100 complete control), read-out: Plant response rating, Soybean): 95%
plant injury at 62 g/ha (soybean (Glycine max); Glycine max, post-emergence, Postemergence, scale 0 to 100 (0 no effect, 100 complete control), read-out: Plant response rating, Soybean): 98%
plant injury at 125 g/ha (soybean (Glycine max); Glycine max, post-emergence, Postemergence, scale 0 (no effect) to 100 (complete control), 13 to 15 days, read-out: Plant response rating, Soybean): 100%
plant injury at 250 g/ha (soybean (Glycine max); Glycine max, post-emergence, Postemergence, 250 g ai/ha, scale 0 to 100 (0 no effect, 100 complete control), 13 to 15 days, read-out: Plant response rating, Soybean): 100%
plant injury at 31 g/ha (soybean (Glycine max); [13]): 65%
plant injury at 62 g/ha (soybean (Glycine max); [13]): 75%
plant injury at 125 g/ha (soybean (Glycine max); Glycine max, pre-emergence, Preemergence, scale 0 to 100, 0 no effect, 100 complete control, read-out: Plant response rating, Soybean): 85%
Soybean plant response rating (soybean (Glycine max); [11]): 95
pest or weed control at 31 g/ha ([5]; Abutilon theophrasti, post-emergence, 360 h, Postemergence, 0 to 100 scale (0 no effect, 100 complete control), read-out: Plant response rating, Velvetleaf): 100%
pest or weed control at 62 g/ha ([5]; Abutilon theophrasti, post-emergence, 360 h, Postemergence, scale 0 to 100 (0 no effect, 100 complete control), read-out: Plant response rating, Velvetleaf): 100%
pest or weed control at 125 g/ha ([5]; Abutilon theophrasti, post-emergence, 360 h, Postemergence, scale 0 (no effect) to 100 (complete control), 13 to 15 days, read-out: Plant response rating, Velvetleaf): 100%
pest or weed control at 250 g/ha ([5]; Abutilon theophrasti, post-emergence, 360 h, Postemergence, 250 g ai/ha, scale 0 to 100 (0 no effect, 100 complete control), 13 to 15 days, read-out: Plant response rating, Velvetleaf): 100%
pest or weed control at 31 g/ha [5, 14]: 100%
pest or weed control at 62 g/ha [5, 14]: 100%
pest or weed control at 125 g/ha ([5]; Abutilon theophrasti, pre-emergence, 360 h, Preemergence, scale 0 to 100, 0 no effect, 100 complete control, read-out: Plant response rating, Velvetleaf): 100%
Velvetleaf plant response rating [5, 11]: 100
pest or weed control at 31 g/ha ([6]; post-emergence, Postemergence, 0 to 100 scale (0 no effect, 100 complete control)): 60%
pest or weed control at 62 g/ha ([6]; post-emergence, Postemergence, scale 0 to 100 (0 no effect, 100 complete control)): 80%
pest or weed control at 125 g/ha ([6]; post-emergence, Postemergence, scale 0 (no effect) to 100 (complete control), 13 to 15 days): 85%
pest or weed control at 250 g/ha ([6]; post-emergence, Postemergence, 250 g ai/ha, scale 0 to 100 (0 no effect, 100 complete control), 13 to 15 days): 98%
pest or weed control at 31 g/ha [6, 15]: 0%
pest or weed control at 62 g/ha [6, 15]: 10%
pest or weed control at 125 g/ha ([6]; pre-emergence, Preemergence, scale 0 to 100, 0 no effect, 100 complete control): 70%
